Drawing on patent publication US20240026339A1, “COMPOSITION AND THE USE OF CELL LYSIS REAGENTS” (Vilnius University, priority 2022, published 2024), this text covers Relative lysis efficiency for 14 compounds.

Values joined by “and” are separate entries in the source; they are usually repeats but may differ in a detail not shown here. Equal values may be shown once. Where a name gives a salt, the structure may show the parent alone.

This assay concerns K-562 cells. The assay is described as follows: Cell lysis efficiency and cDNA yield in bulk (lysis and RT in one mix, PCR, BioAnalyzer/Qubit). It counts as cell-based. Conditions: cDNA yield divided by cDNA yield with 0.1% NP40 of the same Part. How it is done:
The cells, lysis reagents and reverse transcription reagents are mixed together to create one reaction mix. The mRNA released from the lysed cells is reverse transcribed using oligonucleotides into a copy DNA (cDNA). The resulting cDNA is then purified using AMPure purification kit, PCR-amplified and analysed by capillary electrophoresis (BioAnalyzer). The DNA amount is also evaluated by fluorometer (Qubit) and the cDNA yields between different lysis conditions is compared to the reference (0.1% NP40).
The detailed composition and reaction conditions are provided below. Briefly, cell lysis and RT reaction were carried out in bulk with MCF7 and K562 cells. Samples containing 0.02%-0.6% of different cell lysis reagent were evaluated. After the RT reaction, cDNA was pass through a column to remove cell debris and gDNA, purified with 1.2× AMPure, eluted in 20 μl water, amplified by 12-cycles of PCR, purified reaction product with 1.2× AMPure and analyzed on BioAnalyzer chip.
Different sets of detergents were prepared in DEPC-water. Each set was tested separately. The cDNA yield for each detergent was compared to the cDNA yield obtained with 0.1% NP40 final concentration.
4. Setting Up RT Reaction: • 1. […] The final volume of reaction was 40 uL. • 4. RT reaction was carried out at 50° C. for 60 min followed by inactivation at 85° C. for 5 min. • 5. After RT reaction samples were immediately processed further by passing them through Zymo column for 1 min at 10000 g. • 6. The flow through fraction was cleaned up with 1.2× AMPure beads and eluted in 20 μL of water and processed further.
5. cDNA Amplification: • 7. cDNA amplification mix was prepared as follows:
• 8. 12 μL of cDNA amplification mix were mixed with 8 μL of purified cDNA material resulting in a total of 20 μL solution. • 9. Each sample was transferred to thermocycler and PCR program was started:
• 10. Amplified cDNA was cleaned up with 1.2× AMPure beads and eluted to 20 μL of water. • 11. DNA concentration of each sample was measured with Qubit. Samples were frozen only after cDNA amplification if needed). • 12. Calculate the dilution factor needed to reach 1 ng/uL for 0.1% NP40 sample, which is used as a reference. • 13. Load 1 μL of each sample (diluted as much times as 0.1% NP40 sample) on BioAnalyzer (BioA) HS DNA kit/chip and calculate the cDNA yield (ng/μl).
The “Relative lysis efficiency” was estimated by first quantifying the cDNA yield (ng/μl) obtained at a given lysis condition and then dividing the said cDNA yield by the cDNA yield obtained when using 0.1% NP40.

Turning to `C[C@H](CCC(=O)NCCC[N+](C)(C)CCCS(=O)(=O)[O-])[C@H]1CC[C@H]2[C@@H]3[C@H](O)C[C@@H]4C[C@H](O)CC[C@]4(C)[C@H]3C[C@H](O)[C@]12C` [CHAPS], the Relative lysis efficiency runs as follows: (single detergent at 0.02%) 0.43; (single detergent at 0.1%) 0.43.
With `C[C@H](CCC(=O)O)[C@H]1CC[C@H]2[C@@H]3CC[C@@H]4C[C@H](O)CC[C@]4(C)[C@H]3C[C@H](O)[C@]12C` [Deoxycholic acid Na salt], the Relative lysis efficiency by setting is: (single detergent at 0.02%) 0.51; (single detergent at 0.1%) 0.24.
Regarding `C[C@@H]1CC[C@@]2(OC1)O[C@H]1[C@@H](O)[C@H]3[C@@H]4CC[C@H]5C[C@@H](O[C@@H]6O[C@H](CO)[C@H](O[C@@H]7O[C@H](CO)[C@@H](O)[C@H](O[C@@H]8OC[C@@H](O)[C@H](O)[C@H]8O)[C@H]7O[C@@H]7O[C@H](CO)[C@H](O)[C@H](O[C@@H]8O[C@H](CO)[C@@H](O)[C@H](O)[C@H]8O)[C@H]7O)[C@H](O)[C@H]6O)[C@H](O)C[C@]5(C)[C@H]4CC[C@]3(C)[C@H]1[C@@H]2C` [Digitonin], the Relative lysis efficiency reads like this: (single detergent at 0.02%) 0.85; (single detergent at 0.1%) 0.85.
On to `CCCCCCCCCc1ccc(OCCOCCOCCOCCOCCOCCOCCOCCOCCO)cc1` [Igepal CO630], for which the Relative lysis efficiency (single detergent at 0.1%) amounted to 0.98.
Compound `CCCCCCCCCCCCN(C)CC(=O)O` [N-Laurylsarcosine] yielded a Relative lysis efficiency (single detergent at 0.02%) of 0.41 and a Relative lysis efficiency (single detergent at 0.1%) of 0.35.
For `CCCCCCCCO[C@@H]1O[C@H](CO)[C@@H](O)[C@H](O)[C@H]1O` [n-octyl-β-D-glucopyranoside (OBG), n-octyl-β-D-glucopyranoside], in that order: 0.36 and 0.36.
The matching figures for `CCCCCCCCS[C@@H]1O[C@H](CO)[C@@H](O)[C@H](O)[C@H]1O` [n-octyl-β-D-thioglucopyranoside (OTG), n-octyl-β-D-thioglucopyranoside]: 0.37 and 0.31.
For (1-dodecyl) trimethylamonium bromide, in that order: 0.88 and 0.25.
For NP40, the Relative lysis efficiency is reported as 1.00 (single detergent at 0.1%), 1.01 (single detergent at 0.2%), 0.98 (single detergent at 0.4%) and 1.18 (single detergent at 0.6%).
On to Tergitol NP40, for which the Relative lysis efficiency (single detergent at 0.1%) worked out at 0.63.
The same measure, in the same setting: the figure for Triton X-100 is 0.78.
As for Tween 20, the Relative lysis efficiency reads like this: (single detergent at 0.1%) 0.98 and 0.99; (single detergent at 0.2%) 0.99; (single detergent at 0.3%) 0.99; (single detergent at 0.4%) 0.99; (single detergent at 0.6%) 1.02.
Turning to Tween 60, for the setting “single detergent at 0.1%”, the Relative lysis efficiency came out at 0.65.
Regarding Tween 80, the Relative lysis efficiency was 0.50 and 0.73 (single detergent at 0.1%); 0.69 (single detergent at 0.2%); 0.72 (single detergent at 0.3%); 0.71 (single detergent at 0.4%); 0.70 (single detergent at 0.6%).
